“And” between values parts separate entries of the source, which are not always exact repeats. Identical values can stand only once.
How the values were obtained:
Assay in all cases: Synthesizing Selective Agonists for the ?7 Nicotinic Receptor with in situ Click-Chemistry on Acetylcholine Binding Protein Templates.
[1] = target: T1, Soluble acetylcholine receptor (Aplysia californica, UniProt Q8WSF8); details: pH 7.4; 20 °C
T1 sequence (Q8WSF8 whole entry): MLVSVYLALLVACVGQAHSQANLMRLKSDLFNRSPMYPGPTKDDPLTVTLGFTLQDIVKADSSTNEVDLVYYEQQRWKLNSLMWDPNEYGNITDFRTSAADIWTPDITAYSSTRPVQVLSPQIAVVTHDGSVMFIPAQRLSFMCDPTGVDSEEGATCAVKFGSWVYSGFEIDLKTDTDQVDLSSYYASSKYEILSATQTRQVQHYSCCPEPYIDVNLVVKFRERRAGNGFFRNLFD
Protocol: (§1) Assay Description 2 Assays used to generate Ki or EC50 values. 1) SPA Assay - Quick screen binding assays were performed using 100 l of 0.2 mg/ml anti-mouse SPA antibody-binding beads (Amersham Biosciences) mixed with 33.6 g of monoclonal anti-FLAG M2 antibody from mouse (Sigma) in 0.1 M NaPO4 buffer, pH 7.0 (SPA mixture). Media (5l) collected 2 days after transfection were added to the mixture and finally 10 l of (+)-[3H]epibatidine (PerkinElmer Life Sciences) was added at a final concentration of 10 nM. Solutions were each counted for 1 min on either a Beckman LS 6500 liquid scintillation counter or Wallac 1450 Microbeta Trilux. Negative and positive controls consisted of media (5 l) from the respective transfections. Nonexpressing mutants were transfected and verified de novo in triplicate. Western immunoblots were also performed upon media (15 l) from transfections to verify the lack of expression. Competition curves and direct binding were measured following the protocol p

[2] = target: Neuronal acetylcholine receptor subunit alpha-7 (Homo sapiens, UniProt P36544); details: pH 7.4; 37 °C
Protocol: as §1

[3] = target: Acetylcholine-binding protein (Lymnaea stagnalis, UniProt P58154); details: pH 7.4; 20 °C
Protocol: as §1

[4] = target: T2, 5-hydroxytryptamine receptor 3A (Mus musculus, UniProt P23979); details: pH 7.4; 37 °C
T2 sequence (P23979 whole entry): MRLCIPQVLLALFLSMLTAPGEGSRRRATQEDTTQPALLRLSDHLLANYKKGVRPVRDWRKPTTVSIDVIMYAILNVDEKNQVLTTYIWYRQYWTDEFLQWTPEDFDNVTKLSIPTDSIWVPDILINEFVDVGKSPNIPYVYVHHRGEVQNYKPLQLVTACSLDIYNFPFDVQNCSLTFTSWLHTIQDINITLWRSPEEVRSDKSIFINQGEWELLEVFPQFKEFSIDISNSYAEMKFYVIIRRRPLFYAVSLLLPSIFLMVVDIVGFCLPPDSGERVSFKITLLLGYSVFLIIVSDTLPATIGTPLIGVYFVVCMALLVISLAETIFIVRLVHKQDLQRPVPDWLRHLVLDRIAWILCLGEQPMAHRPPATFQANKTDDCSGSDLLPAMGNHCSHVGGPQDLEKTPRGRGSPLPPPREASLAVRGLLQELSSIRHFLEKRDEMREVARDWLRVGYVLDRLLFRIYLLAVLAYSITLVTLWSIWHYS
Protocol: as §1

[5] = target: Neuronal acetylcholine receptor subunit alpha-4 (Homo sapiens, UniProt P43681); details: pH 7.4; 37 °C
Protocol: as §1

Acetylcholine-binding protein, sequence (P58154 whole entry): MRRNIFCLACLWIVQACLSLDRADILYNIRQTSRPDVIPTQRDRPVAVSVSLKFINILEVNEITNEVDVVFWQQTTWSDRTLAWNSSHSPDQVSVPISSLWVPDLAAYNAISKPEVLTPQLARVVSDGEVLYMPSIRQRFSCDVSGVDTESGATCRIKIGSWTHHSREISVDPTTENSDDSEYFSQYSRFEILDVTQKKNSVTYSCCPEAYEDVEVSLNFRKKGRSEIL
Neuronal acetylcholine receptor subunit alpha-4, sequence (P43681 whole entry): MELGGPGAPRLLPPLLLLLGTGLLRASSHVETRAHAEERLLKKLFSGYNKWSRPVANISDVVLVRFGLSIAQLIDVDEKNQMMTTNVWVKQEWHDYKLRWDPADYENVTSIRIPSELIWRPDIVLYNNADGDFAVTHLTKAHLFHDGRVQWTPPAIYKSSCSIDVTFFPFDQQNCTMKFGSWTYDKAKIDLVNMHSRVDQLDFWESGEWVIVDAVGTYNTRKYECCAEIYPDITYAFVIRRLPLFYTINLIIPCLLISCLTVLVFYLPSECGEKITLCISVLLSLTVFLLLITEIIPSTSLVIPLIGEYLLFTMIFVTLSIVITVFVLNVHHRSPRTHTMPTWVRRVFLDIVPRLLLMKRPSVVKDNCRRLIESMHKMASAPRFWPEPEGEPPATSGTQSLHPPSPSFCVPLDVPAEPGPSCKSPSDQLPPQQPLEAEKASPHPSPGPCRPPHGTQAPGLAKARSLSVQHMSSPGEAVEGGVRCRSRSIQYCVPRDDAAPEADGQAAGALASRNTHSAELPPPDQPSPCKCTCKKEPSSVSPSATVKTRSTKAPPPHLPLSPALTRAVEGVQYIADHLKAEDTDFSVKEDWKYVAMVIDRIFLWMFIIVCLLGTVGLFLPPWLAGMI
Neuronal acetylcholine receptor subunit alpha-7, sequence (P36544 whole entry): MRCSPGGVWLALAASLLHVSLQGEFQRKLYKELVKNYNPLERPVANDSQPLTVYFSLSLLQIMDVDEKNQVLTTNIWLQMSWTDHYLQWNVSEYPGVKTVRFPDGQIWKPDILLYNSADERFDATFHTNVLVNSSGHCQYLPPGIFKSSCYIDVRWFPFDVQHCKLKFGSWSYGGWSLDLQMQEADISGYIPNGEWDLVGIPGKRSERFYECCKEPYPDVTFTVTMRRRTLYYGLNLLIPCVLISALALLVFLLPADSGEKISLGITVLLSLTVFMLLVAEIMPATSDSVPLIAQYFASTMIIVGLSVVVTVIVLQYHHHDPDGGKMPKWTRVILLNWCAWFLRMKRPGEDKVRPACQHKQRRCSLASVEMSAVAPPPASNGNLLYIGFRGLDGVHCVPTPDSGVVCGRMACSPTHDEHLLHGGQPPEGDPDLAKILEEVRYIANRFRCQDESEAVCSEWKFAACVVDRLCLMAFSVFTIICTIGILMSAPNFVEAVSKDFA

Compound	Ki [1]	EC50 [2]	Ki [3]	Ki [4]	Ki [5]
CN1[C@@H]2CC[C@H]1C[C@H](n1cc(CNC(=O)c3ccco3)nn1)C2 [12t]	> 5000 nM and 1400 nM	> 30000 nM	210 nM	> 30000 nM	20000 nM
CN1[C@@H]2CC[C@H]1C[C@H](n1cc(CNS(=O)(=O)c3ccc([N+](=O)[O-])cc3)nn1)C2 [16t]	> 5000 nM	5000 nM	> 5000 nM	> 30000 nM	> 30000 nM
Cn1c(=O)cc(OCc2cn(CC[N+]3(C)CCCCC3)nn2)c2ccccc21 [alpha7 agonists 2]	–	1200 nM	–	> 30000 nM	12000 nM
Cc1cc(C)nc(SCCCc2cn([C@@H]3C[C@H]4CC[C@@H](C3)[N+]4(C)C)nn2)n1 [21q]	–	3000 nM	40 nM	> 30000 nM	27100 nM
Cn1c(=O)cc(OCc2cnnn2CCC[N+]2(C)CCCC2)c2ccccc21 [5']	1400 nM and 800 nM	2000 nM	600 nM	> 30000 nM	40000 nM
C[N+]1(C)[C@@H]2CC[C@H]1C[C@H](n1cc(CNC(=O)c3ccco3)nn1)C2 [12q]	600 nM and 1000 nM and 700 nM	3000 nM	400 nM	> 30000 nM	> 30000 nM
O=c1cc(OCc2cnnn2CC[N+]23CCC(CC2)CC3)c2ccccc2[nH]1 [3']	250 nM and 290 nM	2900 nM	24 nM	> 30000 nM	30000 nM
C[N+]1(C)[C@@H]2CC[C@H]1C[C@H](n1cc(COc3ccccc3-c3ccno3)nn1)C2 [14q]	140 nM and 170 nM and 96 nM	2000 nM	50 nM	> 30000 nM	> 30000 nM
C[N+]1(C)[C@@H]2CC[C@H]1C[C@H](n1cc(C(O)(c3ccccc3)C(F)(F)F)nn1)C2 (stereo partly specified) [19q]	–	2000 nM	120 nM	> 30000 nM	22000 nM
C[N+](C)(C)CCn1cc(COc2cc([O])nc3ccccc23)nn1 [alpha7 agonists 6]	–	1700 nM	–	> 30000 nM	14000 nM
CC(=O)c1c(OCc2cn([C@@H]3C[C@H]4CC[C@@H](C3)N4C)nn2)ccc2ccccc12 [22t]	800 nM and 700 nM and > 5000 nM	9000 nM	141 nM	12000 nM	12000 nM
COc1ccc(C=O)c(OCc2cn([C@@H]3C[C@H]4CC[C@@H](C3)[N+]4(C)C)nn2)c1 [13q]	110 nM and 120 nM and 80 nM	800 nM	20 nM	> 30000 nM	7000 nM
Cn1nncc1COc1cc(=O)n(C)c2ccccc12 [alpha7 agonists 1']	1400 nM and 170 nM	6000 nM	60 nM	> 30000 nM	30000 nM
C[N+]1(C)[C@@H]2CC[C@H]1C[C@H](n1cc(COc3ccccc3C3CCCC3)nn1)C2 [18q]	260 nM and 270 nM and 440 nM	400 nM	70 nM	> 30000 nM	4000 nM
Cc1cc(C)nc(SCCCc2cn([C@@H]3C[C@H]4CC[C@@H](C3)N4C)nn2)n1 [21t]	–	> 30000 nM	300 nM	> 30000 nM	> 30000 nM
CC(=O)c1c(OCc2cn([C@@H]3C[C@H]4CC[C@@H](C3)[N+]4(C)C)nn2)ccc2ccccc12 [22q]	200 nM and 300 nM and 900 nM	400 nM	160 nM	> 30000 nM	> 30000 nM
CN1[C@@H]2CC[C@H]1C[C@H](n1cc(C3(O)c4ccccc4-c4ccccc43)nn1)C2 [20t]	2000 nM and 3100 nM and > 5000 nM	12000 nM	500 nM	> 30000 nM	> 30000 nM
CN1[C@@H]2CC[C@H]1C[C@H](n1cc(C(O)(c3ccccc3)C(F)(F)F)nn1)C2 (stereo partly specified) [19t]	> 5000 nM	> 30000 nM	> 5000 nM	> 30000 nM	> 30000 nM
CC(=O)NCc1cn([C@@H]2C[C@H]3CC[C@@H](C2)[N+]3(C)C)nn1 [10q]	800 nM and > 5000 nM and 900 nM	5000 nM	> 5000 nM	> 30000 nM	> 30000 nM
CN1[C@@H]2CC[C@H]1C[C@H](n1cc(COc3cc(=O)n(C)c4ccccc34)nn1)C2 [alpha7 agonists 4t]	–	11000 nM	1.3 nM	15000 nM	14000 nM

Compound	Ki [1]	EC50 [2]	Ki [3]	Ki [4]	Ki [5]
C[N+]1(C)[C@@H]2CC[C@H]1C[C@H](n1cc(CNC(=O)N3c4ccccc4CCc4ccccc43)nn1)C2 [23q]	420 nM and 1000 nM and 2000 nM	8000 nM	500 nM	> 30000 nM	30000 nM
C[N+]1(C)[C@@H]2CC[C@H]1C[C@H](n1cc(C3(O)c4ccccc4-c4ccccc43)nn1)C2 [20q]	400 nM and 600 nM and 120 nM	4000 nM	50 nM	> 30000 nM	15000 nM
C[N+]1(C)[C@@H]2CC[C@H]1C[C@H](n1cc(CNS(=O)(=O)c3ccc([N+](=O)[O-])cc3)nn1)C2 [16q]	620 nM and 800 nM and 600 nM	1800 nM	> 5000 nM	> 30000 nM	> 30000 nM
Cn1c(=O)cc(OCc2cn([C@@H]3C[C@H]4CC[C@@H](C3)[N+]4(C)C)nn2)c2ccccc21 [alpha7 agonists 4]	–	300 nM	–	34000 nM	4000 nM
CN1[C@@H]2CC[C@H]1C[C@H](n1cc(CSc3nc4ccccc4s3)nn1)C2 [15t]	240 nM and 140 nM and 110 nM	12000 nM	40 nM	32000 nM	32000 nM
COc1cc(C=O)ccc1OCc1cn([C@@H]2C[C@H]3CC[C@@H](C2)[N+]3(C)C)nn1 [alpha7 agonists 8]	–	1000 nM	–	> 30000 nM	6000 nM
C[N+]1(C)[C@@H]2CC[C@H]1C[C@H](n1cc(COc3cccc(C#N)c3)nn1)C2 [alpha7 agonists 7]	–	900 nM	–	> 30000 nM	> 30000 nM
C[N+]1(C)[C@@H]2CC[C@H]1C[C@H](n1cc(CSc3nc4ccccc4s3)nn1)C2 [15q]	13 nM and 8 nM	200 nM	4 nM	> 30000 nM	3000 nM
CC(=O)NCc1cn([C@@H]2C[C@H]3CC[C@@H](C2)N3C)nn1 [10t]	> 5000 nM	> 30000 nM	900 nM	> 30000 nM	18000 nM
CN1[C@@H]2CC[C@H]1C[C@H](n1cc(COc3ccccc3C3CCCC3)nn1)C2 [18t]	–	> 30000 nM	30 nM	12000 nM	12000 nM
Cc1cc([N+](=O)[O-])ccc1OCc1cn([C@@H]2C[C@H]3CC[C@@H](C2)[N+]3(C)C)nn1 [alpha7 agonists 9]	–	1900 nM	–	> 30000 nM	14000 nM
CCC[N+](C)(C)CCn1nncc1COc1cc(=O)n(C)c2ccccc12 [2']	800 nM and 210 nM	4200 nM	40 nM	> 30000 nM	> 30000 nM
Cn1c(=O)cc(OCc2cn(CC[N+]34CCC(CC3)CC4)nn2)c2ccccc21 [alpha7 agonists 3]	–	1800 nM	–	> 30000 nM	8000 nM
CN1[C@@H]2CC[C@H]1C[C@H](n1cc(CNC(=O)N3c4ccccc4CCc4ccccc43)nn1)C2 [23t]	1300 nM and 1020 nM and > 5000 nM	> 30000 nM	> 5000 nM	> 30000 nM	> 30000 nM
CN1[C@@H]2CC[C@H]1C[C@H](n1cc(C3(O)CCCCC3)nn1)C2 [11t]	> 5000 nM	> 30000 nM	> 5000 nM	> 30000 nM	> 30000 nM
CN1CC=C(OCc2cnnn2C2CC3CCC(C2)[N+]3(C)C)c2ccccc21 (stereo unspecified) [4']	300 nM and 100 nM	600 nM	2 nM	900 nM	23000 nM
COc1ccc(C=O)c(OCc2cn([C@@H]3C[C@H]4CC[C@@H](C3)N4C)nn2)c1 [13t]	–	> 30000 nM	26 nM	5000 nM	5000 nM
CN1[C@@H]2CC[C@H]1C[C@H](n1cc(COc3ccccc3-c3ccno3)nn1)C2 [14t]	–	> 30000 nM	25 nM	> 30000 nM	> 30000 nM
Cn1c(=O)cc(OCc2cn(CCC[N+]3(C)CCCC3)nn2)c2ccccc21 [alpha7 agonists 5]	–	800 nM	–	> 30000 nM	18000 nM
C[N+]1(C)[C@@H]2CC[C@H]1C[C@H](n1cc(C3(O)CCCCC3)nn1)C2 [11q]	–	9000 nM	> 5000 nM	> 30000 nM	> 30000 nM
